Test results as given in patent publication US6518262B1, “22R-hydroxycholesta-8, 14-diene derivatives for the inhibition of meiosis” (Akzo Nobel N.V., priority 1999, dated 2003).

Columns and labels:
denuded oocytes (DO) = assay: Oocyte assay, antagonistic testing, inhibition of FF-Mas induced maturation in denuded oocytes (DO assay); format: cell-based, mice (B6D2-F1, strain C57BL×DBA); conditions: FF-Mas 5 μM, compound tested 5 μM, control (FF-Mas alone) in brackets
Method: (§1) The meiosis inhibiting activity of the 22R-hydroxycholesta-8,14-diene derivatives of the invention is measured in an in vitro oocyte assay as the ability to inhibit the FF-Mas or 22S-hydroxy-FF-Mas induced maturation, in hypoxanthine media, in denuded oocytes (DO) or cumulus enclosed oocytes (CEO), respectively. Natural resumption of meiosis can be mimicked in vitro by addition of FF-Mas or other agonists to the culture medium containing hypoxanthine. The antagonistic activity of the compounds is measured as the ability to inhibit the FF-Mas or 22S-hydroxy-FF-Mas induced oocyte maturation in denuded oocytes or cumulus enclosed oocytes, respectively, in vitro. Ovaries are obtained from immature female mice (B6D2-F1, strain C57BL×DBA). At the age of 19, 20 or 21 days the mice are injected subcutaneously with a single dose of 20 IU follicle stimulating hormone (Humegon, Organon, The Netherlands) in saline. Forty-eight hours after follicle stimulating hormone injection mice are killed by cervical dislocation. The ovaries are removed, freed of extraneous tissue and placed in a multidish containing 0.5 ml preparation medium at 37° C. L-15 Leibovitz medium (Gibco, pH 7.3±0.1) supplemented with bovine serum albumin (3 mg·ml^−1), L-glutamine (0.23 mM), sodium pyruvate (2 mM) and hypoxanthine (4 mM) is used as preparation medium. The antral follicles of the ovaries are punctured under a dissecting microscope using two 27-gauge needles attached to two 1 ml syringes. […] At t=0 the number of oocytes with intact germinal vesicles (GV) or germinal vesicle break-down (GVBD) is counted under an inverted microscope with differential interference contrast equipment. […] At the end of the culture period the number of oocytes with GV or GVBD per group is counted. For statistical analysis the percentage germinal vesicle breakdown is calculated for each group in one block. These percentages are subjected to arcsin transformation, and differences between control and test compounds are analyzed by an ANOVA test for a randomized block design. […]

[1] = tested on: cumulus enclosed oocytes (CEO); assay: Oocyte assay, antagonistic testing, inhibition of 22S-hydroxy-FF-Mas induced maturation in cumulus enclosed oocytes (CEO assay); format: cell-based, mice (B6D2-F1, strain C57BL×DBA); conditions: 22S-hydroxy-FF-Mas 5 μM, control (22S-hydroxy-FF-Mas alone) in brackets
Method: as §1

[2] = tested on: naturally occurring meiosis activating substance; conditions: as disclosed in WO98/28323; cited from earlier work
LXRα receptor = target: T1, LXRα receptor (Homo sapiens, UniProt Q13133); conditions: among a series of hydroxycholestane derivatives; cited from earlier work
T1 sequence (Q13133 1-447): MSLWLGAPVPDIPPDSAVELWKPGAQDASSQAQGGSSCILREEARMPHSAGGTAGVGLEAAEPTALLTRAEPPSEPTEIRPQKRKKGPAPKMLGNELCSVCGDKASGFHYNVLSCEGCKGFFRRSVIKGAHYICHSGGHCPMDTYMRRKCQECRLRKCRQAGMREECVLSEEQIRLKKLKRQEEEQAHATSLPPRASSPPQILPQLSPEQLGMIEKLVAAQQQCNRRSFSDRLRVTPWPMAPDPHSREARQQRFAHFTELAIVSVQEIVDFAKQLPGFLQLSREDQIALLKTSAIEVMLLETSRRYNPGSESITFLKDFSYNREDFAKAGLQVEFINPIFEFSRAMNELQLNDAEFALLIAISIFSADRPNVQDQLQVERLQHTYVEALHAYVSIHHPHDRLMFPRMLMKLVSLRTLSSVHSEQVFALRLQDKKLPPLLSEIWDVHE

CC(C)CC[C@@H](O)[C@@H](C)[C@H]1CC[C@H]2[C@@H]3CC=C4C[C@@H](O)CC[C@]4(C)[C@H]3CC[C@]12C [22R-hydroxycholesterol]
% GVBD DO assay exp. (denuded oocytes (DO)): 38(89) %
% GVBD CEO assay exp. [1]: 52(89)^4%
antagonist activity (meiosis regulating) [2]: only weakly active as an antagonist
activation of the LXRα receptor (LXRα receptor): most potent activator of the LXRα receptor
